Data as given in patent publication US9073879B2, “Oxazole derivatives useful as modulators of FAAH” (MERCK SHARP & DOHME CORP., priority 2010, dated 2015).

What was measured:
human FAAH [1] = target: T1, human FAAH (Homo sapiens, UniProt O00519); test: FAAH whole cell assay (human Whole cell, FAAH_CHO, AAMCA substrate); assay type: cell-based; conditions: CHO cells expressing human FAAH, whole cell format; read-out: human cell_IC50
T1 construct: The full length FAAH was subcloned into the mammalian expression vector, pcDEF.neo, using XbaI and EcoRI restriction sites; expressed in transfected cells
T1 sequence (O00519 1-579): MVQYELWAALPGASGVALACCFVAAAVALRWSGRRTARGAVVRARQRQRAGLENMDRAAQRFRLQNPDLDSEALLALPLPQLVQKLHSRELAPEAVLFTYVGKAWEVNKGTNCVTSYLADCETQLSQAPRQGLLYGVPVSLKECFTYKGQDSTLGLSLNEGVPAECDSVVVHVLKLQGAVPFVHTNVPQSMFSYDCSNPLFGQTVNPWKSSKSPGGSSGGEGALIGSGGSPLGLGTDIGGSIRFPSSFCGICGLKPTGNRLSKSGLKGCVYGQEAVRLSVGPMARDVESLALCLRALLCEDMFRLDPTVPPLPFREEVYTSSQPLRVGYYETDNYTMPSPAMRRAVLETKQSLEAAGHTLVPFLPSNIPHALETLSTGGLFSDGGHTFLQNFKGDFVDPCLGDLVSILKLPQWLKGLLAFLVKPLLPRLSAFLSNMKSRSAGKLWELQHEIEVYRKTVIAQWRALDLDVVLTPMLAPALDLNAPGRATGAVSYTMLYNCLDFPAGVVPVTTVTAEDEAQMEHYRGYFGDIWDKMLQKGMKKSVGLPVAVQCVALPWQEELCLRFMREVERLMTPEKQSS
Text: (§1) To assist in assay development stable cell lines for human, murine and rat full length FAAH were developed. Human FAAH cDNA (Accession No: NM_001441.1) was purchased from Origene (Rockville, Md.). The full length FAAH was subcloned into the mammalian expression vector, pcDEF.neo, using XbaI and EcoRI restriction sites and used for stable cell line generation.
Murine (accession number NM_010173) and Rat FAAH (accession number NM_024132) was amplified by reverse transcriptase polymerase chain reaction (RT-PCR) from brain cDNA (BD Biosciences, San Jose, Calif.) using primers 1 and 2 or primers 1 and 3 respectively (see Table). The resulting PCR product was ligated into pCR4 TOPO and DNA sequence confirmed. The full length murine FAAH was subcloned into the mammalian expression vector, pcDEFneo using either EcoRI (murine) or KpnI and EcoRI (rat) restriction sites. Chinese hamster ovary cells (CHO) were transfected following manufacturers protocol (AMAXA). Forty eight hours post transfection, cells were trypsinized and transferred to 96 well plates in Iscove's DMEM media supplemented with 2 mM Glutamine, 10% fetal calf serum, 1 mg/ml geneticin and HT Supplement (0.1 mM sodium hypoxanthine, 0.016 mM thymidine) in order to isolate single clones. Following selection in geneticin, individual clones were selected and FAAH activity was assessed using a whole cell fluorescent anandamide assay, modified from Ramarao et al (2005). Following removal of tissue culture media cells were dislodged following addition of Cellstripper (Mediatech, Inc. Manassas, Va.) and transferred to 96 well black clear bottom assay plate, centrifuged at 1,000 rpm for 3 mins and media removed and replaced with assay buffer (50 mM Tris pH8.0, 1 mM EDTA, 0.1% fatty acid free BSA). The reaction was initiated by addition of fluorescent substrate, AMC Arachidonoyl Amide (Cayman Chemical, Ann Arbor, Mich.) to 1 μM and reaction allowed to proceed for 2 hours at room temperature. Release of fluorescence was monitored in a CytoFluor Multiplate Reader. Cells expressing the highest amount of FAAH activity were selected for study with FAAH inhibitors.
(§2) Assays are performed on either cell lysate or microsome fractions prepared as described or in whole cell format employing either the fluorescent substrate AAMCA (Cayman chemical, Ann Arbor, Mich.) or ^3H-anandamide ([ETHANOLAMINE-1-3H] American Radiolabeled Chemicals; 1 mCi/ml). The cell lysate or microsome assay is performed in black PerkinElmer OptiPlates-384F by adding FAAH_CHO (whole cell (shown as human Whole cell or Human WC), cell lysate (shown as human lysate of human LY) or microsome) in assay buffer (50 mM Phosphate, pH 8.0, 1 mM EDTA, 200 mM KCl, 0.2% glycerol, 0.1% fatty acid free BSA) to each well, followed by either DMSO or compound and allowed to incubate at 22-25° C. for fifteen minutes. AAMCA substrate was used to achieve a final concentration of 1 μM and reaction allowed to proceed at room temperature for 1-3 hours. Fluorescent release as a measure of FAAH activity was monitored by reading the plate in an Envision plate Reader (Ex: 360/40 nM; Em: 460/40 nM). Whole cell assay is conducted with cells harvested after rinsing tissue culture flasks three times with Ca^++Mg^++ free PBS, incubating for 10 min in Enzyme free dissociation media and centrifuging for 5 minutes at 1,000 rpm in table top centrifuge. Cells are resuspended in assay buffer at desired cell number in (4×10^4 cells/assay in 96-well format; 1×10^4 cells/assay in 384-well format) and assayed as described.

human FAAH [2] = target: T1, human FAAH; test: FAAH cell lysate assay (human lysate, FAAH_CHO, AAMCA substrate); assay type: biochemical; conditions: lysate of CHO cells expressing human FAAH; read-out: human lysate_IC50
Text: as §1
CHO cells expressing FAAH were used to prepare either crude cell lysate or microsome fractions. To harvest cells, tissue culture media was decanted, the monolayer washed three times with Ca^++Mg^++ free PBS and cells recovered after 15 mm in enzyme free dissociation media (Millipore Corp, Billerica, Mass.). Cells were collected by centrifuging at 2000 rpm for 15 min. and the cell pellet re-suspended with 50 mM HEPES (pH 7.4) containing 1 mM EDTA and the protease inhibitors aprotinin (1 mg/ml) and leupeptin (100 μM). The suspension was sonicated at 4° C. and the cell lysate recovered after centrifuging at 12,000×g (14,600 rpm, SS34 rotor) for 20 min at 4° C. to form a crude pellet of cell debris, nuclei, peroxisomes, lysosomes, and mitochondria; the supernatant or cell lysate was used for FAAH enzyme assay. In some cases, microsomes fractions enriched in FAAH were prepared by centrifuging the cell lysate further at 27,000 rpm (100,000×g) in SW28 rotor for 50 minutes at 4° C. The pellet containing FAAH-enriched microsomes was re-suspend in 50 mM HEPES, (pH 7.4) 1 mM EDTA, and any remaining DNA sheared by passage of material through a 23 gauge needle and aliquots of enzyme were store at −80° C. prior to use.
(American Radiolabeled Chemicals; 1 mCi/ml) with FAAH (Life Sciences (1995), 56, 1999-2005 and Journal of Pharmacology and Experimented Therapeutics (1997), 283, 729-734), Analytical. Biochemistry (2003), 318:270-5. In addition, routine assays were performed monitoring hydrolysis of araehidonyl-7-amino-4-methylcoumarin amide (AAMCA) by following increase in fluorescence upon release of 7-amino 4-methyl coumarin (λEX=355 nm, (λEM=460 nm). Analytical. Biochemistry (2005). 343:143-51
as §2

Q: What does the source list for `COC(=O)c1ccc(OC(C)c2nc(-c3ccc(F)cc3)oc2Sc2ccc(Cl)cn2)cc1` (centres unmarked) [Example B7.1, methyl 4-(1-{5-[(5-chloropyridin-2-yl)sulfanyl]-2-(4-fluorophenyl)-1,3-oxazol-4-yl}ethoxy)benzoate]?
A: IC50 (human FAAH [1]): 39 nM; IC50 (human FAAH [2]): 8 nM

Q: With `CNC(=O)c1ccc(OC(C)c2nc(-c3ccc(F)cc3)oc2Sc2ccc(Cl)cn2)cc1` (centres unmarked) [Example B7.2, 4-(1-{5-[(5-chloropyridin-2-yl)sulfanyl]-2-(4-fluorophenyl)-1,3-oxazol-4-yl}ethoxy)-N-methylbenzamide] as the compound, how does the IC50 (human FAAH [1]) read?
A: Its IC50 is 80 nM.

Q: And the IC50 (human FAAH [2])?
A: Its IC50 is 21 nM.

Q: How did the IC50 (human FAAH [1]) turn out when `COC(=O)c1ccc(OCc2nc(C3CC3)oc2Sc2ccc(Cl)cn2)cc1` [Example D4.1, methyl 4-({5-[(5-chloropyridin-2-yl)sulfanyl]-2-cyclopropyl-1,3-oxazol-4-yl}methoxy)benzoate] was run?
A: The IC50 was 1310 nM.

Q: And the IC50 (human FAAH [2])?
A: The IC50 was 187 nM.

Q: How did the IC50 (human FAAH [1]) turn out when `Clc1ccc(Sc2oc(C3CC3)nc2COc2ccc3[nH]ncc3c2)nc1` [Example D4.2, 5-({5-[(5-chloropyridin-2-yl)sulfanyl]-2-cyclopropyl-1,3-oxazol-4-yl}methoxy)-1H-indazole] was run?
A: Its IC50 is 979 nM.

Q: And the IC50 (human FAAH [2])?
A: Its IC50 is 317 nM.
